Each block holds one compound with its values, some of them ahead of it. Calls of active or inactive are those of the source. No cut-off for these calls is given here.
What was measured:
[1] = test system: LX-2; assay: Inhibition of erastin-induced ferroptosis in human LX2 cells assessed as increase in cell viability incubated for 48 hrs in presence of erastin by MTT assay; type: functional, cell-based; settings: LX-2, 48 h
[2] = test system: ES-2; assay: Inhibition of erastin-induced ferroptosis in human ES2 cells assessed as increase in cell viability incubated for 48 hrs in presence of erastin by MTT assay; type: functional, cell-based; settings: ES-2, 48 h
[3] = test system: HT-29; assay: Inhibition of TNF-alpha/Smac-mimetic/Z-VAD-FMK-induced necrosis in human HT-29 cells assessed as cell viability at 10 uM incubated for 24 hrs in presence of TNF-alpha/Smac-mimetic/Z-VAD-FMK by MTT assay; type: functional, cell-based
[4] = test system: ES-2; assay: Inhibition of staurosporine-induced apoptosis in human ES2 cells assessed as cell viability at 10 uM incubated for 24 hrs in presence of staurosporine by MTT assay; type: functional, cell-based
[5] = test system: ES-2; assay: Inhibition of erastin-induced ferroptosis in human ES2 cells assessed as increase in intracellular GSH content at 1 uM measured after 8 to 10 hrs; type: functional, cell-based; settings: time 8-10 hrs
[6] = test system: THP-1; assay: Inhibition of LPS/nigericin-stimulated pyroptosis in PMA-differentiated human THP-1 cells assessed as cell viability at 10 uM treated with LPS for 4 hrs followed by incubation with compound and nigericin for 30 mins by MTT assay; type: functional, cell-based
[7] = test system: ES-2; assay: Inhibition of erastin-induced ferroptosis in human ES2 cells assessed as increase in intracellular GSH content at 0.01 to 1 uM measured after 8 to 10 hrs; type: functional, cell-based; settings: dose 0.01-1 µM, time 8-10 hrs
[8] = test system: ES-2; assay: Inhibition of erastin-induced ferroptosis in human ES2 cells assessed as DMT1 protein expression at 0.01 to 1 uM incubated for 8 to 10 hrs by western blot analysis; type: functional, cell-based; settings: dose 0.01-1 µM, time 8-10 hrs
[9] = test system: ES-2; assay: Inhibition of ferritinophagy in erastin-stimulated human ES2 cells assessed as increase in NCOA4 protein expression incubated for 8 to 10 hrs by western blot analysis; type: functional, cell-based; settings: dose 0.01-1 µM, time 8-10 hrs
[10] = test system: ES-2; assay: Inhibition of erastin-induced ferroptosis in human ES2 cells assessed as NRF2 protein expression at 0.01 to 1 uM incubated for 8 to 10 hrs by western blot analysis; type: functional, cell-based; settings: dose 0.01-1 µM, time 8-10 hrs
[11] = test system: ES-2; assay: Inhibition of erastin-induced ferroptosis in human ES2 cells assessed as FACL4 protein expression at 0.01 to 1 uM incubated for 8 to 10 hrs by western blot analysis; type: functional, cell-based; settings: dose 0.01-1 µM, time 8-10 hrs
[12] = test system: ES-2; assay: Inhibition of ferritinophagy in erastin-stimulated human ES2 cells assessed as increase in NCOA4 gene expression at 0.01 to 1 uM by qRT-PCR analysis; type: functional, cell-based; settings: dose 0.01-1 µM
[13] = test system: Mus musculus; assay: Protection against APAP-induced acute liver injury C57BL/6 mouse model assessed as decrease in serum ALT content at 3 mg/kg, ip administered 2 hrs prior to APAP injection and measured after 6 hrs; type: functional, organism-based; settings: time 8.0 hrs
[14] = test system: ES-2; assay: Inhibition of erastin-induced ferroptosis in human ES2 cells assessed as GPX4 protein expression at 0.01 to 1 uM incubated for 8 to 10 hrs by western blot analysis; type: functional, cell-based; settings: dose 0.01-1 µM, time 8-10 hrs
[15] = test system: ES-2; assay: Inhibition of erastin-induced ferroptosis in human ES2 cells assessed as inhibition of lipid peroxidation by measuring decrease in MDA content at 0.01 uM measured after 8 to 10 hrs; type: functional, cell-based; settings: time 8-10 hrs
[16] = Metal chelating activity assessed as compound-Fe2+ complex formation at 10 uM incubated for 5 mins by ferrozine-based colorimetric assay
[17] = Antioxidant activity assessed as DPPH radical scavenging activity at 1 to 50 uM incubated for 10 mins by DPPH assay; type: functional; settings: dose 1-50 µM
[18] = test system: ES-2; assay: Inhibition of ferritinophagy in erastin-stimulated human ES2 cells assessed as increase in FTH1 gene expression at 0.01 to 1 uM by qRT-PCR analysis; type: functional, cell-based; settings: dose 0.01-1 µM
[19] = Potency index, ratio of ferrostatin-1 EC50 to test compound EC50 for inhibition of erastin-induced ferroptosis in human ES2 cells; type: functional, ES-2
[20] = test system: ES-2; assay: Inhibition of erastin-induced ferroptosis in human ES2 cells assessed as TFR1 protein expression at 0.01 to 1 uM incubated for 8 to 10 hrs by western blot analysis; type: functional, cell-based; settings: dose 0.01-1 µM, time 8-10 hrs
[21] = test system: ES-2; assay: Inhibition of erastin-induced ferroptosis in human ES2 cells assessed as xCT protein expression at 0.01 to 1 uM incubated for 8 to 10 hrs by western blot analysis; type: functional, cell-based; settings: dose 0.01-1 µM, time 8-10 hrs
[22] = test system: ES-2; assay: Inhibition of erastin-induced ferroptosis in human ES2 cells assessed as ERK protein expression at 0.01 to 1 uM incubated for 8 to 10 hrs by western blot analysis; type: functional, cell-based; settings: dose 0.01-1 µM, time 8-10 hrs
[23] = test system: ES-2; assay: Inhibition of ferritinophagy in erastin-stimulated human ES2 cells assessed as increase in FTL gene expression at 0.01 to 1 uM by qRT-PCR analysis; type: functional, cell-based; settings: dose 0.01-1 µM
[24] = test system: ES-2; assay: Inhibition of erastin-induced ferroptosis in human ES2 cells assessed as FPN protein expression at 0.01 to 1 uM incubated for 8 to 10 hrs by western blot analysis; type: functional, cell-based; settings: dose 0.01-1 µM, time 8-10 hrs
[25] = test system: ES2; assay: Effect on ERK1/2 phoshorylation in erastin-stimulated human ES2 cells at 0.01 to 1 uM incubated for 8 to 10 hrs by western blot analysis; type: cell-based; settings: dose 0.01-1 µM, time 8-10 hrs
[26] = test system: Mus musculus; assay: Protection against APAP-induced acute liver injury C57BL/6 mouse model assessed as decrease in liver MDA content at 3 mg/kg, ip administered 2 hrs prior to APAP injection and measured after 6 hrs; type: functional, organism-based; settings: time 8.0 hrs
[27] = test system: ES-2; assay: Inhibition of erastin-induced ferroptosis in human ES2 cells assessed as reduction in cytosolic ROS accumulation at 0.01 to 1 uM measured after 8 to 10 hrs by DCFH-DA staining based fluorescence analysis; type: functional, cell-based; settings: dose 0.01-1 µM, time 8-10 hrs
[28] = test system: ES-2; assay: Inhibition of ferritinophagy in erastin-stimulated human ES2 cells assessed as increase in ferritin protein expression incubated for 8 to 10 hrs by western blot analysis; type: functional, cell-based; settings: dose 0.01-1 µM, time 8-10 hrs
[29] = test system: Mus musculus; assay: Protection against APAP-induced acute liver injury C57BL/6 mouse model assessed as decrease in serum AST content at 3 mg/kg, ip administered 2 hrs prior to APAP injection and measured after 6 hrs; type: functional, organism-based; settings: time 8.0 hrs
[30] = test system: Mus musculus; assay: Protection against APAP-induced acute liver injury C57BL/6 mouse model assessed as decrease in liver tissue damage at 3 mg/kg, ip administered 2 hrs prior to APAP injection and measured after 6 hrs by Hematoxylin-Eosin staining based analysis; type: functional, organism-based; settings: time 8.0 hrs

Compound: FC(F)(F)c1ccccc1-c1noc(-c2cccc3nc4ccccc4nc23)n1
EC50 [1]: 15 nM | EC50 [2]: 39 nM

Compound: c1ccc2nc3ccccc3nc2c1 [PHENAZINE]
EC50 [2]: 2820 nM

Compound: FC(F)(F)c1cccc(-c2noc(-c3cccc4nc5ccccc5nc34)n2)c1
EC50 [1]: 13 nM | EC50 [2]: 2 nM

Compound: FC(F)(F)c1ccc(-c2noc(-c3cccc4nc5ccccc5nc34)n2)cc1
EC50 [1]: 32 nM | EC50 [2]: 3 nM

Compound: FC(F)(F)Oc1cccc(-c2noc(-c3cccc4nc5ccccc5nc34)n2)c1
EC50 [1]: 14 nM | EC50 [2]: 6 nM

Compound: Brc1cccc(-c2noc(-c3cccc4nc5ccccc5nc34)n2)c1
EC50 [1]: 6 nM | EC50 [2]: 2 nM

Compound: COc1ccccc1-c1noc(-c2cccc3nc4ccccc4nc23)n1
EC50 [1]: 5 nM | EC50 [2]: 13 nM

Compound: CC(C)c1noc(-c2cccc3nc4ccccc4nc23)n1
EC50 [2]: 136 nM

Compound: Fc1cccc(-c2noc(-c3cccc4nc5ccccc5nc34)n2)c1
EC50 [1]: 2 nM | EC50 [2]: 2 nM

Compound: CC(C)(C)c1cccc(-c2noc(-c3cccc4nc5ccccc5nc34)n2)c1
EC50 [1]: 7 nM | EC50 [2]: 3 nM

Compound: Cc1ccccc1-c1noc(-c2cccc3nc4ccccc4nc23)n1
EC50 [1]: 10 nM | EC50 [2]: 13 nM

Compound: Cc1cccc(-c2noc(-c3cccc4nc5ccccc5nc34)n2)c1
EC50 [1]: 4 nM | EC50 [2]: 7 nM

Compound: c1ccc2nc3c(-c4nc(-c5ccc(N6CCOCC6)cc5)no4)cccc3nc2c1
EC50 [1]: 1 nM | EC50 [2]: 1 nM

Compound: c1ccc2nc3c(-c4nc(-c5ccncc5)no4)cccc3nc2c1
EC50 [2]: 7 nM

Compound: c1ccc2nc3c(-c4nc(-c5nccs5)no4)cccc3nc2c1
EC50 [2]: 6 nM

Compound: c1ccc2nc3c(-c4nc(-n5cccn5)no4)cccc3nc2c1
EC50 [2]: 143 nM

Compound: c1cncc(-c2noc(-c3cccc4nc5ccccc5nc34)n2)c1
EC50 [2]: 240 nM

Compound: Fc1ccc(-c2noc(-c3cccc4nc5ccccc5nc34)n2)cc1
EC50 [1]: 2 nM | EC50 [2]: 2 nM

Compound: CN(C)c1cccc(-c2noc(-c3cccc4nc5ccccc5nc34)n2)c1
EC50 [1]: 2 nM | EC50 [2]: 1 nM

Compound: CCOC(=O)c1ccc(NC2CCCCC2)c(N)c1
EC50 [1]: 67 nM | inhibition [3]: inactive | inhibition [4]: inactive | EC50 [2]: 70.1 nM | inhibition [5]: inactive | inhibition [6]: inactive

Compound: Fc1ccccc1-c1noc(-c2cccc3nc4ccccc4nc23)n1
EC50 [1]: 1 nM | EC50 [2]: 5 nM

Compound: Fc1ccc(-c2noc(-c3cccc4nc5ccccc5nc34)n2)cc1F
EC50 [1]: 11 nM | EC50 [2]: 9 nM

Compound: c1ccc(-c2noc(-c3cccc4nc5ccccc5nc34)n2)cc1
EC50 [2]: 4 nM

Compound: c1ccc2nc3c(-c4nc(C5CC5)no4)cccc3nc2c1
EC50 [2]: 214 nM

Compound: CC(C)(C)c1ccc(-c2noc(-c3cccc4nc5ccccc5nc34)n2)cc1
EC50 [1]: 13 nM | EC50 [2]: 11 nM

Compound: Cc1ccc(-c2noc(-c3cccc4nc5ccccc5nc34)n2)cc1
EC50 [1]: 2 nM | EC50 [2]: 130 nM

Compound: c1ccc(-c2noc(-c3cccc4nc5ccccc5nc34)n2)nc1
EC50 [2]: 131 nM

Activity [16]: inactive
Compound: c1cc(CN2CCCCC2)cc(-c2noc(-c3cccc4nc5ccccc5nc34)n2)c1
inhibition [7]: inactive | EC50 [1]: 0.925 nM | inhibition [3]: inactive | inhibition [8]: inactive | inhibition [9]: Dose-dependent-effect | inhibition [10]: inactive | inhibition [4]: inactive | inhibition [11]: inactive | inhibition [12]: Active | Activity [13]: Active | inhibition [14]: inactive | inhibition [15]: Active | EC50 [2]: 0.712 nM | Activity [17]: inactive | inhibition [18]: Active | Ratio EC50 [19]: 1000 | inhibition [20]: inactive | inhibition [21]: inactive | inhibition [22]: inactive | inhibition [23]: Active | inhibition [24]: inactive | Activity [25]: inactive | Activity [26]: Active | inhibition [27]: Active | inhibition [28]: Dose-dependent-effect | Activity [29]: Active | Activity [30]: Active | inhibition [6]: inactive

Compound: CC(C)(C)c1noc(-c2cccc3nc4ccccc4nc23)n1
EC50 [2]: 604 nM

Compound: CCOc1ccccc1-c1noc(-c2cccc3nc4ccccc4nc23)n1
EC50 [1]: 10 nM | EC50 [2]: 23 nM

Compound: Cc1noc(-c2cccc3nc4ccccc4nc23)n1
EC50 [2]: 268 nM

From ChEMBL document CHEMBL6096648, “Discovery of phenazine derivatives as a new class of non-classical ferroptosis inhibitors and efficacy evaluation on a mouse model of liver injury” (Eur J Med Chem, 2025)
